Assay results from PubChem BioAssay (NCI).
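Exposure lasted 48 hours, with cells grown in 96-well plates and compounds tested at five concentrations. GI50: concentration for 50% inhibition of growth. The concentration for full growth arrest is given as TGI.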

Columns and labels:
Test in all cases: growth of human tumour cells (NCI), 48 h
[1] = system: HCC-2998 colon
[2] = system: HOP-62 NSCLC
[3] = system: SF-268 CNS
[4] = system: CCRF-CEM leukemia
[5] = system: DLD-1 colon
[6] = system: HL-60(TB) leukemia
[7] = system: SK-OV-3 ovarian
[8] = system: NCI-H23 lung
[9] = system: SK-MEL-28 melanoma
[10] = system: MOLT-4 leukemia
[11] = system: LOX IMVI melanoma
[12] = system: NCI-H226 lung

| Compound | TGI [1] | TGI [2] | TGI [3] | TGI [4] | TGI [5] | TGI [6] | TGI [7] | TGI [8] | TGI [9] | TGI [10] | TGI [11] | TGI [12] | GI50 [11] | GI50 [1] | GI50 [2] | GI50 [3] | GI50 [7] | GI50 [8] | GI50 [12] | GI50 [9] |
| --- | --- | --- | --- | --- | --- | --- | --- | --- | --- | --- | --- | --- | --- | --- | --- | --- | --- | --- | --- | --- |
| CCCCCCCCC[C@@H]1C[C@H](O)[C@H](Cc2ccccc2)N1C(=O)OC(C)(C)C | 27.8 µM | 34.9 µM | 34.6 µM | 55.9 µM | 33.8 µM | 48.7 µM | 39 µM | 31.6 µM | 34.9 µM | > 100 µM | – | – | – | – | – | – | – | – | – | – |
| O=c1n(CC2CO2)c2ccccc2n1CC1CS1 (stereo not given) | > 100 µM | > 100 µM | > 100 µM | > 100 µM | – | 87.7 µM | – | – | > 100 µM | > 100 µM | > 100 µM | > 100 µM | – | – | – | – | – | – | – | – |
| O=[N+]([O-])c1cnccc1-n1nnc2ccccc21 | 51.6 µM | 59.3 µM | > 62.3 µM | > 86.5 µM | > 96.6 µM | > 54.7 µM | 56.6 µM | > 62 µM | 48.4 µM | > 75.7 µM | 32.8 µM | 49.8 µM | – | – | – | – | – | – | – | – |
| c1ccc2c(CCNC3=NCCO3)cccc2c1 | > 10 µM | > 10 µM | > 10 µM | > 10 µM | – | > 10 µM | > 10 µM | > 10 µM | > 10 µM | > 10 µM | > 10 µM | > 10 µM | – | – | – | – | – | – | – | – |
| O=C(O)c1cc2sc(C(=O)O)cc2s1 | – | > 100 µM | > 100 µM | > 100 µM | > 100 µM | > 100 µM | > 100 µM | > 100 µM | – | > 100 µM | > 100 µM | > 100 µM | – | – | – | – | – | – | – | – |
| O=[N+]([O-])c1ccc(N/N=C\c2ccc(O)cc2O)nc1 | > 100 µM | 45 µM | > 100 µM | – | – | – | > 100 µM | > 100 µM | > 100 µM | – | > 100 µM | > 100 µM | 0.754 µM | 3.94 µM | 4.34 µM | 1.21 µM | 2.18 µM | 3.39 µM | 3.39 µM | 5.03 µM |
| Nc1[nH]nc2c1Cc1c(n(Cc3ccc(Cl)cc3)c3ccccc13)C(=O)N2 | 24.6 µM | 31.1 µM | 47.8 µM | 26.6 µM | – | 10.2 µM | 34.6 µM | 23.9 µM | > 100 µM | 29.3 µM | 26.4 µM | 44.7 µM | – | – | – | – | – | – | – | – |
| CC(=O)Nc1ccc(C(=O)NN2C(=O)C(Cl)C2/C=C/c2ccccc2)cc1 (stereo not given) | > 100 µM | > 100 µM | > 100 µM | > 100 µM | > 100 µM | > 100 µM | > 100 µM | > 100 µM | > 100 µM | > 100 µM | – | > 100 µM | – | – | – | – | – | – | – | – |
| CSc1nc(NC2OC(CO)C(O)C(O)C2O)c(N)c(=O)[nH]1 (stereo not given) | > 100 µM | > 100 µM | > 100 µM | > 100 µM | > 100 µM | > 100 µM | > 100 µM | > 100 µM | > 100 µM | > 100 µM | > 100 µM | > 100 µM | – | – | – | – | – | – | – | – |
| COC(=O)C(Cc1cc(OC)c(OC)c(OC)c1)(NC(=O)c1ccccc1)P(=O)(OC)OC (stereo not given) | > 100 µM | > 100 µM | > 100 µM | > 100 µM | > 100 µM | > 100 µM | > 100 µM | > 100 µM | > 100 µM | > 100 µM | > 100 µM | > 100 µM | – | – | – | – | – | – | – | – |
| O=C1CN2CCN(CC2)CC(=O)Nc2ccc(cc2)S(=O)(=O)c2ccc(cc2)NC(=O)CN2CCN(CC2)CC(=O)Nc2ccc(cc2)S(=O)(=O)c2ccc(cc2)N1 | > 100 µM | > 93.6 µM | 38.7 µM | 1.81 µM | – | > 100 µM | > 100 µM | > 90.4 µM | > 100 µM | > 89 µM | > 100 µM | > 100 µM | – | – | – | – | – | – | – | – |
